Measurements: ChEMBL document CHEMBL4616589, “Exploring structure-promiscuity relationships using dual-site promiscuity cliffs and corresponding single-site analogs” (Bioorg Med Chem, 2020)

How the values were obtained:
[1] = target: Vascular endothelial growth factor receptor 1 (Homo sapiens, UniProt P17948); assay: Inhibition of VEGFR1 (unknown origin)
[2] = target: Tyrosine-protein kinase ABL1 (Homo sapiens, UniProt P00519); assay: Inhibition of ABL1 (unknown origin)
Chain of Tyrosine-protein kinase ABL1 (P00519 whole entry): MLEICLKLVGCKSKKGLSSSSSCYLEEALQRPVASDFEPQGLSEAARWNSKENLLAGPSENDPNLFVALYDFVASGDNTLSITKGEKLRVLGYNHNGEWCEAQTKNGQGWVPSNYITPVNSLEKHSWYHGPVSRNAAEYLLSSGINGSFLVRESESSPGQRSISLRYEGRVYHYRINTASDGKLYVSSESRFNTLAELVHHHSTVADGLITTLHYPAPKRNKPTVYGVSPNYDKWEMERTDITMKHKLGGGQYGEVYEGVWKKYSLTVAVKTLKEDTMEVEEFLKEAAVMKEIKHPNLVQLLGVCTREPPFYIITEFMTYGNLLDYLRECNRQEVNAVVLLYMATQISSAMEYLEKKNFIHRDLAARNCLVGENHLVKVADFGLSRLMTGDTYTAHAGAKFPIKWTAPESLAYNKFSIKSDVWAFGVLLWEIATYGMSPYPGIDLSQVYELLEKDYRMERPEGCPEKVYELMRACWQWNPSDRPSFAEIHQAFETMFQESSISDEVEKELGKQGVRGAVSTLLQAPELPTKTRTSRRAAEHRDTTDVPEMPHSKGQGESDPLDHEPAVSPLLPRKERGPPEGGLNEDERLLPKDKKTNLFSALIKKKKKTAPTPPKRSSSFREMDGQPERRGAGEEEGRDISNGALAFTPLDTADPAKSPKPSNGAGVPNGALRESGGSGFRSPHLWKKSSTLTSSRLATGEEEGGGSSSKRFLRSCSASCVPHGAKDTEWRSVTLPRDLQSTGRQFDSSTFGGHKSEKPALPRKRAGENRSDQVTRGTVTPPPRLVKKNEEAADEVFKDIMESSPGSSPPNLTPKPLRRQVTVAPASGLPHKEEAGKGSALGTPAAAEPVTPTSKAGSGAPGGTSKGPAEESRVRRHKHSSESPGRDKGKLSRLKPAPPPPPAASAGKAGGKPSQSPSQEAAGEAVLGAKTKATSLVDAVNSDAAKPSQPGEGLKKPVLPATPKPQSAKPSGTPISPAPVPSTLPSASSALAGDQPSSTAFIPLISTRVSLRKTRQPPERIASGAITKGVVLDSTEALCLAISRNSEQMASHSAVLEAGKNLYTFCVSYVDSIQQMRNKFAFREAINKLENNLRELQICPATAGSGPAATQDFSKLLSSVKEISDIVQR

Chain of Vascular endothelial growth factor receptor 1 (P17948 whole entry): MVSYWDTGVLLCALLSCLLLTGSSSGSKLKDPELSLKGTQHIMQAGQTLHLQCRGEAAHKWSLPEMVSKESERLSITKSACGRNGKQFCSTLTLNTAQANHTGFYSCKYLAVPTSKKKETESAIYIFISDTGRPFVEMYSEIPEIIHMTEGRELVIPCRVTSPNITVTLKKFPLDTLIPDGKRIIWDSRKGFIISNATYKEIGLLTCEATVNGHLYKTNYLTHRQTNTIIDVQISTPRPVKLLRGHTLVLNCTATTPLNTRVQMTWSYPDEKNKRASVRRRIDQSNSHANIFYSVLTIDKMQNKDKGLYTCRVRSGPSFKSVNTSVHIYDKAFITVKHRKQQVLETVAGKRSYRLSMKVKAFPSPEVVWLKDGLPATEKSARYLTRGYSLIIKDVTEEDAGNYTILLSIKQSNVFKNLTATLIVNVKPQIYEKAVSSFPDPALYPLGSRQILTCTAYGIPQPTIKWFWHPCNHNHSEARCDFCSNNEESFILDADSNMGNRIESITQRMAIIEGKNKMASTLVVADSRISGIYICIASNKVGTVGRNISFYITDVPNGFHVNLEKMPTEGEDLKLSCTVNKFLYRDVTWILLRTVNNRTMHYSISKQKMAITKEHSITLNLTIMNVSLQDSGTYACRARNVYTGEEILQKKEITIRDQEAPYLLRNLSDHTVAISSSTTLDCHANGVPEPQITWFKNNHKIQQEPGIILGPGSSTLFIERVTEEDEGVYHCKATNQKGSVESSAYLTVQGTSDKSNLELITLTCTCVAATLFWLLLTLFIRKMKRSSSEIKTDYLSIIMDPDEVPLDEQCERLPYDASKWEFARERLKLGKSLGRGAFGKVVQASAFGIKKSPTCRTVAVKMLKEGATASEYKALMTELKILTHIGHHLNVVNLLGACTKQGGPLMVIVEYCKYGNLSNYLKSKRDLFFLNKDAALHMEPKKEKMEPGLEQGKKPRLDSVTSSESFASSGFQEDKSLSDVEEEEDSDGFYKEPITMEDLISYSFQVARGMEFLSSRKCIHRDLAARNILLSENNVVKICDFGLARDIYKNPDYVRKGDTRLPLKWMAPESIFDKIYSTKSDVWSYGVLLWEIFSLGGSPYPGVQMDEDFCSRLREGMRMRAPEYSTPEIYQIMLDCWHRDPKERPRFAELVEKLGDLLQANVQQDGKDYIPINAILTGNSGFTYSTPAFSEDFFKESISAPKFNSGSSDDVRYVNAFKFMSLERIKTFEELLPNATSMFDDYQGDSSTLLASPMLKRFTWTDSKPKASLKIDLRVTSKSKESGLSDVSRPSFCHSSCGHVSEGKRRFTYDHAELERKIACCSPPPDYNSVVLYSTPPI

| Structure (SMILES) | IC50 [1] | Ki [2] |
| --- | --- | --- |
| ClC(Cn1ncc2c(NCc3ccccc3)ncnc21)c1ccccc1 (configuration not stated) | 1000 nM | – |
| CCCCNc1ncnc2c1cnn2CC(Cl)c1ccccc1 (configuration not stated) | – | 2000 nM |
